In US20250186600A1, “EXCIPIENT COMPOUNDS FOR PROTEIN FORMULATIONS” (Comera Life Sciences, Inc., priority 2020, published 2025):
Each block holds one compound with its values, some of them ahead of it.

Assays:
[1] = system: infliximab; experiment: Thermal stability at 50° C. with caffeine and excipients, SE-HPLC (Example 63); assay type: physicochemical; conditions: excipient 0.5 M, caffeine 50 mM, infliximab 10 mg/mL, 5 mM phosphate pH 7.5, 50° C., 180 min
Experimental: Therapeutic proteins stress leads to aggregation of the protein and a decrease in the active native species. […] The aliquots were withdrawn at 0 min, 90 min and 180 min. […] Diode array detector.

[2] = system: bovine gamma globulin (BGG); experiment: Normalized viscosity of BGG with caffeine and a secondary excipient (Example 40); assay type: physicochemical; conditions: BGG about 280 mg/mL, 20 mM histidine pH 6, 25° C.
[3] = system: omalizumab; experiment: Freeze-thaw stability, light scattering at 350 nm (Example 48); assay type: physicochemical; conditions: excipient 5 mg/mL, omalizumab 5 mg/mL, 20 mM histidine pH 6.0, at least 5 freeze (−80° C.)/thaw cycles
[4] = system: ustekinumab; experiment: Stabilization at low pH, Sypro orange fluorescence (Example 45); conditions: excipient 5 mg/mL, ustekinumab 1 mg/mL, glycine acidification buffer pH 2.6, Sypro orange fluorescence
[5] = Caffeine solubility with co-solutes during refrigerated storage (Example 61); assay type: physicochemical; design: key: (PPT)—precipitate observed; (—)—clear solution observed; conditions: 50 mM co-solute, 25 mM histidine pH 6, stored 2 to 5° C.
Experimental: The resulting microplates were then sealed with microplate tape and stored in a refrigerator with the temperature maintained in the range of 2 to 5° C. Over the course of storage, the microplates were visually observed for evidence of precipitate in the well.

[6] = system: ustekinumab; experiment: Urea denaturation, Sypro orange fluorescence (Example 44); assay type: physicochemical; conditions: excipient 5 mg/mL, ustekinumab 1 mg/mL, 6M urea, 20 mM histidine pH 6.0, Sypro orange fluorescence
Excerpt: It is known that urea denatures proteins in solution and causes them to unfold. The screening methodology in this example involved adding a specific concentration of urea to a therapeutic protein solution such as ustekinumab. […] One method to track protein unfolding involves the use of extrinsic fluorescent dyes such as Sypro orange. Sypro orange binds to hydrophobic regions in the unfolded protein structure, leading to an increase in the fluorescence signal observed. Measuring the differences in the fluorescence intensity of unfolded protein-Sypro orange complex in presence of different excipients thus allows one to identify any stabilizing effects.
All excipients used in this Example, listed in Table 45 below, were of the highest purity, and were obtained from Sigma Aldrich (St. Louis, MO) or Cayman Chemical (Ann Arbor, MI). […] This urea stock solution was then added to a final concentration of 6M to produce the test solutions (excipient plus protein plus urea). […] The pH of the mixture was rechecked and confirmed to be at pH 6.0. The test solutions were allowed to incubate at room temperature for 30 min.

[7] = Excipient A caffeine 15 mg/mL + Excipient B 15 mg/mL
[8] = Excipient A caffeine 15 mg/mL + Excipient B 20 mg/mL

Compound: OC[C@H]1O[C@H](O[C@H]2[C@H](O)[C@@H](O)C(O)O[C@@H]2CO)[C@H](O)[C@@H](O)[C@@H]1O (mixture of isomers) [Maltose]
- % change compared to control [1]: 9.65%

Compound: O=C1O[C@H]([C@@H](O)CO)C(O)=C1O[C@H]1O[C@H](CO)[C@@H](O)[C@H](O)[C@H]1O [Ascorbyl glucoside]
- % change compared to control [1]: 45.8%

Compound: O.O.[Ca+2].[Cl-].[Cl-] [CaCl2 dihydrate]
- Normalized Viscosity [2, 7]: 0.65

Compound: O=C(O)CN(CCN(CC(=O)O)CC(=O)O)CCN(CC(=O)O)CC(=O)O [DTPA]
- % reduction in light scattering at 350 nm vs. control [3]: 17.2%

Compound: CS(C)(=O)=O [Dimethyl sulfone, dimethyl sulfone]
- Normalized Viscosity ([2]; Excipient A caffeine 15 mg/mL + Excipient B 25 mg/mL): 0.65

Compound: CCO [Ethanol]
- Normalized Viscosity ([2]; Excipient A caffeine 15 mg/mL + Excipient B 22 mg/mL): 0.65

Compound: O=C(O)[C@@H]1C[C@@H](O)CN1 [Hydroxyproline]
- % change compared to control [1]: 67.3%

Compound: OC[C@H](O)[C@@H](O)[C@H](O)[C@@H](O)CO [Iditol]
- % reduction in light scattering at 350 nm vs. control [3]: 11.7%
- % change in stability [4]: 11.6%

Compound: O[C@H]1[C@H](O)[C@@H](O)[C@H](O)[C@@H](O)[C@H]1O [Inositol]
- % change compared to control [1]: 58.9%

Compound: NC(=O)c1ccncc1 [Isonicotinamide]
- % reduction in light scattering at 350 nm vs. control [3]: 4.8%
- % change in stability [4]: 65.4%

Compound: CC(C)C[C@H](N)C(=O)O [Leucine]
- Normalized Viscosity [2, 8]: 0.69

Compound: OC[C@@H](O)[C@@H](O)[C@H](O)[C@H](O)CO [Mannitol]
- % reduction in light scattering at 350 nm vs. control [3]: 17.8%

Compound: OC[C@H]1O[C@@](CO)(O[C@H]2O[C@H](CO)[C@@H](O)[C@H](O)[C@H]2O)[C@@H](O[C@H]2O[C@H](CO)[C@@H](O)[C@H](O)[C@H]2O)[C@@H]1O [Melezitose]
- % reduction in light scattering at 350 nm vs. control [3]: 7.4%

Compound: CC(=O)[O-].[Na+] [Sodium acetate]
- Normalized Viscosity ([2]; Excipient A caffeine 15 mg/mL + Excipient B 12 mg/mL): 0.77

Compound: O=C(CO)[C@@H](O)[C@H](O)[C@H](O)[C@H](O)CO [seduheptalose]
- % reduction in light scattering at 350 nm vs. control [3]: 16.0%

Results, then the compound that gave them:

- % reduction in light scattering at 350 nm vs. control [3]: 15.3%
- % change in stability [4]: 41.8%
Compound: CNC[C@H](O)[C@@H](O)[C@H](O)[C@H](O)CO [Meglumine]

- Normalized Viscosity [2, 7]: 0.63
Compound: NC(=O)c1cccnc1 [Niacinamide]

- Normalized Viscosity [2, 8]: 0.60
- Day 1 (visual observation for precipitate) ([5]; caffeine 7.5 mg/mL): —
- Day 7 (visual observation for precipitate) ([5]; caffeine 7.5 mg/mL): —
- Day 18 (visual observation for precipitate) ([5]; caffeine 7.5 mg/mL): —
- Day 27 (visual observation for precipitate) ([5]; caffeine 7.5 mg/mL): —
- Day 56 (visual observation for precipitate) ([5]; caffeine 7.5 mg/mL): —
- Day 1 (visual observation for precipitate) ([5]; caffeine 10 mg/mL): —
- Day 7 (visual observation for precipitate) ([5]; caffeine 10 mg/mL): —
- Day 18 (visual observation for precipitate) ([5]; caffeine 10 mg/mL): —
- Day 27 (visual observation for precipitate) ([5]; caffeine 10 mg/mL): —
- Day 56 (visual observation for precipitate) ([5]; caffeine 10 mg/mL): —
- Day 1 (visual observation for precipitate) ([5]; caffeine 12.5 mg/mL): —
- Day 7 (visual observation for precipitate) ([5]; caffeine 12.5 mg/mL): —
- Day 18 (visual observation for precipitate) ([5]; caffeine 12.5 mg/mL): —
- Day 27 (visual observation for precipitate) ([5]; caffeine 12.5 mg/mL): —
- Day 56 (visual observation for precipitate) ([5]; caffeine 12.5 mg/mL): —
- Day 1 (visual observation for precipitate) ([5]; caffeine 15 mg/mL): —
- Day 7 (visual observation for precipitate) ([5]; caffeine 15 mg/mL): —
- Day 18 (visual observation for precipitate) ([5]; caffeine 15 mg/mL): —
- Day 27 (visual observation for precipitate) ([5]; caffeine 15 mg/mL): —
- Day 56 (visual observation for precipitate) ([5]; caffeine 15 mg/mL): PPT
- Day 1 (visual observation for precipitate) ([5]; caffeine 20 mg/mL): —
- Day 7 (visual observation for precipitate) ([5]; caffeine 20 mg/mL): PPT
- Day 18 (visual observation for precipitate) ([5]; caffeine 20 mg/mL): PPT
- Day 27 (visual observation for precipitate) ([5]; caffeine 20 mg/mL): PPT
- Day 56 (visual observation for precipitate) ([5]; caffeine 20 mg/mL): PPT
Compound: N[C@@H](Cc1ccccc1)C(=O)O [Phenylalanine]

- % reduction in light scattering at 350 nm vs. control [3]: 15.3%
- % change in stability [4]: 1.1%
Compound: O=C(CO)[C@H](O)[C@H](O)[C@H](O)CO [Psicose]

- % reduction in light scattering at 350 nm vs. control [3]: 3.7%
- % change in stability [4]: 2.6%
- % increased stability [6]: 1.7%
Compound: OC[C@H]1O[C@H](OC[C@H]2O[C@H](O[C@]3(CO)O[C@H](CO)[C@@H](O)[C@@H]3O)[C@H](O)[C@@H](O)[C@@H]2O)[C@H](O)[C@@H](O)[C@H]1O [Raffinose]

- % change compared to control [1]: 46.2%
Compound: O=P(O)(O)C(O)(Cc1cccnc1)P(=O)(O)O [Risedronate]

- % reduction in light scattering at 350 nm vs. control [3]: 10.7%
- % change in stability [4]: 0.4%
- % increased stability [6]: 6.3%
Compound: OC[C@@H](O)[C@H](O)[C@@H](O)CO [Xylitol]
